This passage reports IC50 and melting point results from patent publication US6706744B2, “Glucagon antagonists/inverse agonists” (Novo Nordisk A/S, priority 2000, dated 2004).

Each structure is given as a SMILES string.

The target in one data set is T1, human GIP receptor (Homo sapiens, UniProt P48546).
T1 construct: expressed in transfected cells; host or cells: BHK (baby hamster kidney) cells; membrane preparation
T1 sequence (P48546 22-466): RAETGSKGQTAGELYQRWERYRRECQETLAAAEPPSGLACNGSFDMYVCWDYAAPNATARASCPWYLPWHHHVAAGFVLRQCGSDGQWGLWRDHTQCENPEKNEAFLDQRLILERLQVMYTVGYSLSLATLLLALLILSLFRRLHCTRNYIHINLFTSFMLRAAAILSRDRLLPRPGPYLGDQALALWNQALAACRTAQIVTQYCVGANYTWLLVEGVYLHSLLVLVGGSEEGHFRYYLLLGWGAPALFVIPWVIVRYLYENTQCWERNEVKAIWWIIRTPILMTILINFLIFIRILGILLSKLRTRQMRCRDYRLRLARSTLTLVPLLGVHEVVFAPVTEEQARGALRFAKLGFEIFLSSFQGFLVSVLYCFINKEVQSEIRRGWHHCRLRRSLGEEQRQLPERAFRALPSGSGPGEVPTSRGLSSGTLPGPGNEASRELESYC
The data set can be described thus: GIP binding assay. The note with it: membranes of BHK cells transfected with human GIP receptor; 125I-GIP tracer; SPA. As for the experimental part:
BHK (baby hamster kidney cell line) cells are transfected with the human GIP receptor and a membrane preparation of the cells is prepared. Wheat Germ Agglutinin derivatized SPA beads containing a scintillant (WGA beads) (Amersham) bound the membranes. ^125I-GIP bound to human GIP receptor in the membranes and excited the scintillant in the WGA beads to light emission. GIP or samples binding to the receptor competed with ^125I-GIP.
(§1) All steps in the membrane preparation are kept on ice or performed at 4° C. BHK cells are harvested and centrifuged. The pellet is resuspended in homogenisation buffer (25 mM HEPES, pH=7.4, 2.5 mM CaCl2, 1.0 mM MgCl2, 250 mg/l bacitracin, 0.1 mM Pefabloc), homogenised 2×10 sec using Polytron 10-35 homogenizer (Kinematica) and added the same amount of homogenisation buffer as used for resuspension. After centrifugation (15 min at 2000×g) the supernatant is transferred to cold centrifuge tubes and centrifuged for 45 min at 40.000×g. The pellet is resuspended in homogenisation buffer, homogenised 2×10 sec (Polytron) and additional homogenisation buffer is added. The suspension is centrifuged for 45 min at 40.000×g and the pellet is resuspended in resuspension buffer (25 mM HEPES, pH=7.4, 2.5 mM CaCl2, 1.0 mM MgCl2) and homogenised 2×10 sec. (Polytron). The protein concentration is normally around 1.75 mg/ml. Stabilisation buffer (25 mM HEPES, pH=7.4, 2.5 mM CaCl2, 1.0 mM MgCl2, 1% bovine serum albumin, 500 mg/l bacitracin, 2.5 M sucrose) is added and the membrane preparation is stored at −80° C.
The GIP binding assay is carried out in opti plates (Polystyrene Microplates, Packard). 50 μl assay buffer (25 mM HEPES, pH=7.5, 2.5 mM CaCl2, 1.0 mM MgCl2, 0.003% Tween-20, 0.005% bacitracin, 0.05% sodium azide) and 5 μl GIP or test compound (in DMSO) are added to each well. 50 μl tracer (^125I-porcine GIP, 50.000 cpm) and 50 μl membranes (20 μg) containing the human GIP receptor are then added to the wells. Finally 50 μl WGA beads containing 1 mg beads are transferred to the well. The opti plates are incubated for 3.5 hours on a shaker and then settled for 8-48 hours. The opti plates are counted in a Topcounter. Non-specific binding is determined with 500 nM of GIP.

A further data set addresses T2, human glucagon receptor (Homo sapiens, UniProt P47871).
T2 construct: expressed in transfected cells; host or cells: BHK (baby hamster kidney) cells; membrane preparation
The data set can be described thus: Glucagon binding assay (II). Particulars: membranes of BHK cells transfected with human glucagon receptor; 125I-glucagon tracer; SPA. As for the experimental part:
Glucagon Binding Assay (II)
BHK (baby hamster kidney cell line) cells are transfected with the human glucagon receptor and a membrane preparation of the cells is prepared. Wheat Germ Agglutinin derivatized SPA beads containing a scintillant (WGA beads) (Amersham) bound the membranes. ^125I-glucagon bound to human glucagon receptor in the membranes and excited the scintillant in the WGA beads to light emission. Glucagon or samples binding to the receptor competed with ^125I-glucagon.
as §1, with “0, 1” for “0.1”
The glucagon binding assay is carried out in opti plates (Polystyrene Microplates, Packard). 50 μL assay buffer (25 mM HEPES, pH=7.5, 2.5 mM CaCl2, 1.0 mM MgCl2, 0.003% Tween-20, 0.005% bacitracin, 0.05% sodium azide) and 5 μl glucagon or test compound (in DMSO) are added to each well. 50 μl tracer (^125I-porcine glucagon, 50.000 cpm) and 50 μl membranes (7.5 μg) containing the human glucagon receptor are then added to the wells. Finally 50 μl WGA beads containing 1 mg beads are transferred to the well. The opti plates are incubated for 4 hours on a shaker and then settled for 8-48 hours. The opti plates are counted in a Topcounter. Non-specific binding is determined with 500 nM of glucagon.

T2 sequence (P47871 26-477): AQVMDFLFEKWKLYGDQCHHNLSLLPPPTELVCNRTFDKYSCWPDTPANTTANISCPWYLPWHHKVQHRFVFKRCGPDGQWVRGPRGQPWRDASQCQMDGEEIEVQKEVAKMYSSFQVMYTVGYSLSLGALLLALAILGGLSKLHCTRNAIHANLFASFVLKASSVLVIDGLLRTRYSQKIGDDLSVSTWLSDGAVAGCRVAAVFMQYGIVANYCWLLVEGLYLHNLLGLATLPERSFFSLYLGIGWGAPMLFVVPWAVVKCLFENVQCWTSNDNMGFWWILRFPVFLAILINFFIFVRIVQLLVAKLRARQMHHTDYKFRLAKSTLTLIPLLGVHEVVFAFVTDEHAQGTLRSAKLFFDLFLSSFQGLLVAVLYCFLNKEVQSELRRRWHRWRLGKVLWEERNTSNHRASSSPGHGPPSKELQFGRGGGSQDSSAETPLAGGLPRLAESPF

Consider `N#Cc1cc(NC(=O)N(Cc2ccc(C(=O)NCCC(=O)O)cc2)c2ccc(C3CCCCC3)cc2)cc(C(F)(F)F)c1` [Example 8, 3-{4-[3-(3-Cyano-5-trifluoromethylphenyl)-1-(4-cyclohexylphenyl)ureidomethyl]benzoyl-amino}propionic acid], for which the half-maximal inhibitory concentration (IC50) at human GIP receptor was found to be 76 nM; on human glucagon receptor, 0.035 µM.
The corresponding values for `O=C(O)CCNC(=O)c1ccc(CN(C(=O)Nc2cccc(Br)c2)c2ccc(C3=CCCCC3)cc2)cc1` [Example 2, 3-{4-[3-(3-Bromophenyl)-1-(4-cyclohex-1-enylphenyl)ureidomethyl]benzoylamino}propionic acid] are 198 nM and 0.053 µM.
For the compound `O=C(O)CCNC(=O)c1ccc(CN(C(=O)Nc2cccc(C(F)(F)F)c2)c2ccc(C3CCCCC3)cc2)cc1` [Example 7, 3-{4-[1-(4-Cyclohexylphenyl)-3-(3-trifluoromethylphenyl)ureidomethyl]benzoylamino}propionic acid], the IC50 at human GIP receptor came to 82 nM; on human glucagon receptor it was 0.029 µM.
Consider `CS(=O)(=O)c1cc(NC(=O)N(Cc2ccc(C(=O)NCCC(=O)O)cc2)c2ccc(C3=CCCCC3)cc2)ccc1OC(F)(F)F` [Example 6, 3-{4-[1-(4-Cyclohexen-1-ylphenyl)-3-(3-methanesulfonyl-4-trifluoromethoxyphenyl)ureidomethyl]benzoylamino}propionic acid], for which the concentration for half-maximal inhibition (IC50) at human GIP receptor was determined as 177 nM; on human glucagon receptor, 0.009 µM.
In the case of `O=C(O)CCNC(=O)c1ccc(CN(C(=O)Nc2cccc(Br)c2)c2ccc(C3CCCCC3)cc2)cc1` [Example 5, 3-{4-[3-(3-Bromophenyl)-1-(4-Cyclohexylphenyl)ureidomethyl]benzoylamino}propionic acid], the IC50 at human GIP receptor came to 265 nM; at human glucagon receptor it was 0.042 µM.
The matching figures for `O=C(O)CCNC(=O)c1ccc(CN(C(=O)Nc2cccc(OC(F)(F)F)c2)c2ccc(C3=CCCCC3)cc2)cc1` [Example 3, 3-{4-[3-(3-Trifluoromethoxyphenyl)-1-(4-cyclohex-1-enylphenyl)ureidomethyl]benzoylamino}propionic acid]: 34 nM and 0.025 µM.
As for `O=C(O)CCNC(=O)c1ccc(CN(C(=O)Nc2ccc(OC(F)(F)F)c(CO)c2)c2ccc(C3CCCCC3)cc2)cc1` [Example 10, 3-{4-[1-(4-Cyclohexylphenyl)-3-(3-hydroxymethyl-4-trifluoromethoxyphenyl)ureidomethyl]benzoylamino}propionic acid], the melting point lay in the range of 167.5 to 168.5 °C. The same compound displayed an IC50 at human GIP receptor of 107 nM. Moreover, the 50% inhibitory concentration (IC50) on human glucagon receptor was found to be 0.049 µM.
Consider `O=C(O)CCNC(=O)c1ccc(CN(C(=O)Nc2ccc(OC(F)(F)F)c(CO)c2)c2ccc(C3=CCCCC3)cc2)cc1` [Example 11, 3-{4-[1-(4-Cyclohex-1-enylphenyl)-3-(3-hydroxymethyl-4-trifluoromethoxyphenyl)ureidomethyl]benzoylamino}propionic acid], for which the IC50 worked out at 152 nM on human GIP receptor and 0.064 µM at human glucagon receptor.
The corresponding values for `N#Cc1cc(NC(=O)N(Cc2ccc(C(=O)NCCC(=O)O)cc2)c2ccc(C3=CCCCC3)cc2)cc(C(F)(F)F)c1` [Example 9, 3-{4-[3-(3-Cyano-5-trifluoromethylphenyl)-1-(4-cyclohex-1-enylphenyl)ureidomethyl]benzoyl-amino}propionic acid] are 122 nM and 0.042 µM.
On to `C[C@H](NC(=O)N(Cc1ccc(C(=O)NCCC(=O)O)cc1)c1ccc(C2CCCCC2)cc1)c1ccc(Cl)cc1` [Example 1, 3-{4-[3-[1(S)-(4-Chlorophenyl)ethyl]1-(4-cyclohexylphenyl)ureidomethyl]benzoylamino}propionic acid], for which the 50% inhibitory concentration (IC50) on human GIP receptor amounted to 644 nM; on human glucagon receptor, 0.064 µM.
The corresponding values for `O=C(O)CCNC(=O)c1ccc(CN(C(=O)Nc2cc(F)cc(C(F)(F)F)c2)c2ccc(C3CCCCC3)cc2)cc1` [Example 4, 3-{4-[1-(4-Cyclohexylphenyl)-3-(3-fluoro-5-trifluoromethylphenyl)ureidomethyl]benzoylamino}propionic acid] are 90 nM and 0.029 µM.

Broadly, the IC50 is the concentration that gives 50% inhibition. Read a low IC50 as greater potency. As a reminder, the melting point is the temperature of the solid-liquid transition.
